ChEMBL document CHEMBL1126144, “Synthesis and evaluation of radioiodinated 2-(2(RS)-aminopropyl)-5- iodothiophenes as brain imaging agents” (J Med Chem, 1992)

Columns and labels:
[1] = system: Rattus norvegicus; assay: Distribution of the radioiodinated compound expressed as percent dose per gram, in blood of unfasted rats after 30 mins of intravenous administration (11.5 uCi/animal); value ranges from 0.06-0.63 % dose/g; type: ADME, organism-based; details: in vivo, 0.5 h
[2] = system: Rattus norvegicus; assay: Distribution of the radioiodinated compound expressed as percent dose per gram, in brain of unfasted rats after 60 mins of intravenous administration (11.5 uCi/animal); value ranges from 0.81-1.08 % dose/g; type: ADME, organism-based; details: in vivo, 1 h
[3] = system: Rattus norvegicus; assay: Distribution of the radioiodinated compound expressed as percent dose per gram, in lungs of unfasted rats after 30 mins of intravenous administration (11.5 uCi/animal); value ranges from 0.51-3.71 % dose/g; type: ADME, organism-based, Lung; details: in vivo, 0.5 h
[4] = system: Rattus norvegicus; assay: Distribution of the radioiodinated compound expressed as percent dose per organ, in thyroid of unfasted rats after 60 mins of intravenous administration (11.5 uCi/animal); value ranges from 0.99-1.40 % dose/g; type: ADME, organism-based, Thyroid gland; details: in vivo, 1 h
[5] = system: Rattus norvegicus; assay: Distribution of the radioiodinated compound expressed as percent dose per gram, in thyroid of unfasted rats after 30 mins of intravenous administration (11.5 uCi/animal); value ranges from 5.03-36.88 % dose/g; type: ADME, organism-based, Thyroid gland; details: in vivo, 0.5 h
[6] = system: Rattus norvegicus; assay: Distribution of the radioiodinated compound expressed as percent dose per gram, in kidney of unfasted rats after 5 mins of intravenous administration (11.5 uCi/animal); value ranges from 2.12-3.14 % dose/g; type: ADME, organism-based; details: in vivo
[7] = system: Rattus norvegicus; assay: Distribution of the radioiodinated compound expressed as percent dose per gram, in heart of unfasted rats after 60 mins of intravenous administration (11.5 uCi/animal); value ranges from 0.33-0.42 % dose/g; type: ADME, organism-based; details: in vivo, 1 h
[8] = system: Rattus norvegicus; assay: Distribution of the radioiodinated compound expressed as percent dose per gram, in brain of unfasted rats after 5 mins of intravenous administration (11.5 uCi/animal); value ranges from 2.57-3.59 % dose/g; type: ADME, organism-based; details: in vivo
[9] = system: Rattus norvegicus; assay: Distribution of the radioiodinated compound expressed as percent dose per organ, in thyroid of unfasted rats after 30 mins of intravenous administration (11.5 uCi/animal); value ranges from 0.05-0.38 % dose/g; type: ADME, organism-based, Thyroid gland; details: in vivo, 0.5 h
[10] = system: Rattus norvegicus; assay: Distribution of the radioiodinated compound expressed as percent dose per gram, in thyroid of unfasted rats after 5 mins of intravenous administration (11.5 uCi/animal); value ranges from 7.87-16.51 % dose/g; type: ADME, organism-based, Thyroid gland; details: in vivo
[11] = system: Rattus norvegicus; assay: Distribution of the radioiodinated compound expressed as percent dose per gram, in liver of unfasted rats after 5 mins of intravenous administration (11.5 uCi/animal); value ranges from 1.64-2.38 % dose/g; type: ADME, organism-based; details: in vivo
[12] = system: Rattus norvegicus; assay: Distribution of the radioiodinated compound expressed as percent dose per gram, in blood of unfasted rats after 5 mins of intravenous administration (11.5 uCi/animal); value ranges from 0.28-0.37% dose/g; type: ADME, organism-based; details: in vivo
[13] = system: Rattus norvegicus; assay: Distribution of the radioiodinated compound expressed as percent dose per gram, in thyroid of unfasted rats after 60 mins of intravenous administration (11.5 uCi/animal); value ranges from 31.90-39.98 % dose/g; type: ADME, organism-based, Thyroid gland; details: in vivo, 1 h
[14] = system: Rattus norvegicus; assay: Distribution of the radioiodinated compound expressed as percent dose per gram, in heart of unfasted rats after 5 mins of intravenous administration (11.5 uCi/animal); value ranges from 0.85-1.13 % dose/g; type: ADME, organism-based; details: in vivo
[15] = system: Rattus norvegicus; assay: Distribution of the radioiodinated compound expressed as percent dose per gram, in blood of unfasted rats after 60 mins of intravenous administration (11.5 uCi/animal); value ranges from % dose/g; type: ADME, organism-based; details: in vivo, 1 h
[16] = system: Rattus norvegicus; assay: Distribution of the radioiodinated compound expressed as percent dose per gram, in liver of unfasted rats after 30 mins of intravenous administration (11.5 uCi/animal); value ranges from 0.08-0.90 % dose/g; type: ADME, organism-based; details: in vivo, 0.5 h
[17] = system: Rattus norvegicus; assay: Distribution of the radioiodinated compound expressed as percent dose per gram, in liver of unfasted rats after 60 mins of intravenous administration (11.5 uCi/animal); value ranges from 0.61-0.81 % dose/g; type: ADME, organism-based; details: in vivo, 1 h
[18] = system: Rattus norvegicus; assay: Distribution of the radioiodinated compound expressed as percent dose per gram, in brain of unfasted rats after 30 mins of intravenous administration (11.5 uCi/animal); value ranges from 0.16-1.76 % dose/g; type: ADME, organism-based; details: in vivo, 0.5 h
[19] = system: Rattus norvegicus; assay: Distribution of the radioiodinated compound expressed as percent dose per gram, in lungs of unfasted rats after 5 mins of intravenous administration (11.5 uCi/animal); value ranges from 5.92-8.51% dose/g; type: ADME, organism-based, Lung; details: in vivo
[20] = system: Rattus norvegicus; assay: Distribution of the radioiodinated compound expressed as percent dose per gram, in lungs of unfasted rats after 60 mins of intravenous administration (11.5 uCi/animal); value ranges from 1.87-2.12 % dose/g; type: ADME, organism-based, Lung; details: in vivo, 1 h
[21] = system: Rattus norvegicus; assay: Distribution of the radioiodinated compound expressed as percent dose per gram, in kidney of unfasted rats after 30 mins of intravenous administration (11.5 uCi/animal); value ranges from 0.15-1.43 % dose/g; type: ADME, organism-based; details: in vivo, 0.5 h
[22] = system: Rattus norvegicus; assay: Distribution of the radioiodinated compound expressed as percent dose per gram, in kidney of unfasted rats after 60 mins of intravenous administration (11.5 uCi/animal); value ranges from 0.74-0.85 % dose/g; type: ADME, organism-based; details: in vivo, 1 h
[23] = system: Rattus norvegicus; assay: Distribution of the radioiodinated compound expressed as percent dose per organ, in thyroid of unfasted rats after 5 mins of intravenous administration (11.5 uCi/animal); value ranges from 0.08-0.17 % dose/g; type: ADME, organism-based, Thyroid gland; details: in vivo
[24] = organism: Rattus norvegicus; assay: Specific activity of the radioiodinated compound was determined in rats; type: functional
[25] = system: Rattus norvegicus; assay: Distribution of the radioiodinated compound expressed as percent dose per gram, in heart of unfasted rats after 30 mins of intravenous administration (11.5 uCi/animal); value ranges from 0.06-0.53 % dose/g; type: ADME, organism-based; details: in vivo, 0.5 h

CC(C)NC(C)Cc1ccc(I)s1 (racemic)
Distribution [1]: 0.49 % dose g-1
Distribution [2]: 0.95 % dose g-1
Distribution [3]: 2.76 % dose g-1
Distribution [4]: 1.24 % dose organ-1
Distribution [5]: 26.26 % dose g-1
Distribution [6]: 2.72 % dose g-1
Distribution [7]: 0.37 % dose g-1
Distribution [8]: 3.18 % dose g-1
Distribution [9]: 0.28 % dose organ-1
Distribution [10]: 12.51 % dose g-1
Distribution [11]: 2.06 % dose g-1
Distribution [12]: 0.31 % dose g-1
Distribution [13]: 36.45 % dose g-1
Distribution [14]: 0.94 % dose g-1
Distribution [15]: 0.6 % dose g-1
Distribution [16]: 0.71 % dose g-1
Distribution [17]: 0.07 % dose g-1
Distribution [18]: 1.37 % dose g-1
Distribution [19]: 7.01 % dose g-1
Distribution [20]: 1.97 % dose g-1
Distribution [21]: 1.04 % dose g-1
Distribution [22]: 0.79 % dose g-1
Distribution [23]: 0.13 % dose organ-1
Activity [24]: 40 mCi animal-1
Distribution [25]: 0.42 % dose g-1
